Results: US11542475B2, “3D microphysiologic system” (Northwestern University, priority 2014, dated 2023)

Tested on: primary human endocervical cells
Experiment: Immunohistochemistry of 3D endocervical cultures (PR, ER, Ki67)
Type: cell-based
Details: day-14 (E2), day-28 (E2+P4)
Experimental: To represent a 28-day human menstrual cycle in vitro, a stepwise hormone regimen was added to the cells. For the first 7 days, cells were incubated with 0.1 nM E2, followed by 1 nM E2 for the next 7 days (FIG. 45). Then cells were treated for 1 nM E2 and 10 nM P4 for an additional 7 days, followed by 0.1 nM E2 and 50 nM P4 for 5 days. Then media without hormones were added for the final 2 days for a total culture period of 28 days. Media was collected every 48 h and stored at −20° C. For PR antagonist studies, cells were treated with 100 nM RU486 (Sigma, MO) which was added on day-21. To visualize the cells on scaffold, cells were infected with the adenovirus containing pAD-eGFP-RLC (Cell Imaging Core, Northwestern University) (Khuon et al. Journal of cell science 123:431-440.; herein incorporated by reference in its entirety) by adding 2 μl of amplified virus to 3.5 ml of media per […] for 24 h.
Scaffolds were washed twice in PBS, covered with histogel (Fisher Scientific, MA) and fixed in 4% paraformaldehyde for 5 h. Processing and hematoxylin and eosin (H&E) staining was performed at the Northwestern University Center for Reproductive Sciences Histology Core (Chicago, Ill.). […] HRP activity was detected using 3,3′-Diaminobenzidine (DAB) in 1:50 dilution (Dako, CA) as substrate for 30-60 sec and then counterstained with hematoxylin. […]

SMILES: C[C@]12CC[C@@H]3c4ccc(O)cc4CC[C@H]3[C@@H]1CC[C@@H]2O [E2, estradiol]
- Ki67 staining compared to control: increased staining
